Results reported in article PMC12583827, “Harnessing microbial-derived metabolites in the urinary tract to prevent infection induced catheter encrustation” (Nature Communications, 2025).
Counter-ions that a name gives are not always drawn.

Tests used:
M. morganii TA43 = assay: Growth and viability of M. morganii in dampening metabolites; type: cell-based, Morganella morganii
Description: (§1) 478 Supplementary Figure 20. Growth of M. morganii, P. stuartii and UTI MRSA incubated in
(§2) 479 dampening metabolites. M. morganii TA43 (A,D,G), P. stuartii BE2467(B,E,H), UTI MRSA
(§3) 480 (C,F,I) were incubated in urease dampening metabolites to assess impact on growth. Bacteria
(§4) 481 were cultured for ~18 hours in LB (Mm and Ps) or BHI (MRSA) broth, then diluted 1:100 into
(§5) 482 fresh broth with (A-C) the highest concentrations of dampening metabolites assessed for urease
(§6) 483 inhibition or (D-F) serial dilutions of D-imidazole lactate. Bacterial suspensions were incubated
(§7) 484 at 37 °C with double-orbital shaking, and OD600 was measured every 15 minutes for 18 hours.
(§8) 485 Error bars represent mean ± standard deviation (SD) from at least 3 technical replicates, and
(§9) 486 graphs are representative of 3 independent biologic experiments. (G-I) Viability of incubated in
(§10) 487 Mm, Ps or MRSA incubated in serial dilutions of D-imidazole lactate. Overnight cultures were
(§11) (1 picture or pasted object on this page, not shown here)
(§12) 488 subcultured to mid log phase, washed in potassium phosphate buffer, and diluted 1:10 in
(§13) 489 potassium phosphate buffer with and without D-imidazole lactate. Samples (n=3) were incubated
(§14) 490 at 37°C with aeration for one hour then plated and enumerated for colony forming units (CFU).

P. stuartii urease = assay: Urease activity assay, whole cell P. stuartii BE2467; type: cell-based, Providencia stuartii
Description: (§15) Urease activity was measured as described previously in triplicate with at least three biological replicates[21]. Briefly, bacteria were cultured for ~18 h in LB broth, concentrated to an OD600 of 4, washed once in saline, and diluted (1:10 for P. mirabilis and 1:50 for P. stuartii and M. morganii) into candidate dampening metabolites in potassium phosphate buffer or human urine pH7 and supplemented with 500 mM urea and 0.01% phenol red. Bacterial suspensions were distributed into a 96-well plate, incubated at 37 °C with double-orbital shaking in a Synergy H1 plate reader (BioTek), and absorbance (OD562) was measured every 60 seconds for 180 minutes. Isogenic urease mutants (Supplementary Data 1) served as negative controls for P. mirabilis and P. stuartii and a vehicle control served as a negative control for M. morganii.

M. morganii urease = assay: Urease activity assay, whole cell M. morganii TA43; type: cell-based, Morganella morganii
Description: as §15

UTI MRSA = assay: Growth and viability of UTI MRSA in dampening metabolites; type: cell-based, Staphylococcus aureus
Description: as §1, §2, §3, §4, §5, §6, §7, §8, §9, §10, §11, §12, §13, §14

P. mirabilis = assay: In vitro glass “bladder” model of catheter encrustation; type: cell-based, Proteus mirabilis; conditions: for crystalline biofilm formation / Magnesium and phosphorus precipitation on catheter segments (ICP-OES) / catheter biofilm biomass (crystal violet) vs untreated P. mirabilis: 24 h; for crystalline biofilm formation: alone: 1.25 mM AHA, 12.5 mM histamine, 12.5 mM 4-imidazole acetate; for P. mirabilis CFUs in effluent over time / urease-mediated pH increase: tested individually; for urease-mediated pH increase: dose response
Description: A Foley catheter is inserted aseptically into the vessel through an opening at the base, the balloon is inflated, and the catheter is attached to a catheter drainage bag (Fig. 7A). The “bladder” is supplied with sterile AUM at a physiologically relevant flow rate via peristaltic pump from a media reservoir, the “kidney” (Fig. 7A). An initial bacterial inoculum of 10^8 CFU of P. mirabilis was added to the AUM in the “bladder” inner chamber to model robust bacteriuria, followed by initiation of flow (Fig. 7B). The performance of urease-dampening metabolites was evaluated as a reduction in 1) effluent AUM pH over the 24 h study period, and 2) crystalline biofilm formation and ion precipitation on catheter segments 24 h post inoculation. Urease-dampening metabolites and AHA were introduced into the system by direct dissolution into the AUM reservoirs. For each study, both positive (untreated P. mirabilis) and negative (untreated P. mirabilis urease negative mutant) controls were included. Effluent urine samples were collected at 0, 3, 6, 9, 12 and 24 h post inoculation. This preclinical model of catheter encrustation was modified to assess whether prophylactic administration of urease-dampening metabolites increases efficacy of antimicrobials against catheter biofilms, as outlined in Fig. 9A. Each experiment was performed in triplicate. Full details of experimental set up, sample collection, and processing are provided below and in Supplementary Materials.
A previously described glass “bladder” model was used, in which a 500 mL water-jacketed glass vessel is maintained at 37 °C via a circulating water bath, a Foley catheter is inserted and inflated, and artificial urine medium (AUM) is supplied into the “bladder” at a constant flow rate (0.75-1.0 mL/min) through a peristaltic pump[55],[56]. For consistency with the in vitro urease activity assays and the physiologic range of urea in healthy human urine, AUM was supplemented with 500 mM urea[57]. Urease-dampening metabolites of interest were directly dissolved in AUM 500 mM urea, adjusted to a pH of 5.8, and filter sterilized via a 0.2μm filter. “Bladders” were inoculated with 10^8 CFUs of P. mirabilis. Samples were collected from the catheter port at 0, 3, 6, 9, 12, and 24 hours to monitor pH and bacterial CFUs. Catheters segments were processed for CFUs, crystal violet staining of biofilm biomass, and ion composition at 24 h. Full details are provided in the Supplementary Methods.
236 and the segments were air dried for 15 min. Catheter segments were stained with 1.0 ml 0.1%
237 crystal violet for 10 min, washed by gentle dunking in 1X phosphate-buffered saline (PBS) to
238 remove excess stain, and solubilized in a microcentrifuge tube containing 750μL of 1% SDS
239 95% ethanol and vortexed for 5 minutes. Crystal violet absorbance (OD570) was measured in a
240 BioTek Synergy H1 microplate reader and blanked using cell-free control wells for each biofilm
243 Catheter segment biofilm viability. Catheter segments were washed by gentle dunking in 1X
244 phosphate-buffered saline (PBS) to remove any remaining planktonic bacteria and residual AUM
245 from the catheter lumen. Catheter segments were then placed in a microcentrifuge tube
246 containing 1mL of 1X PBS and vortexed for 5 minutes to solubilize the biofilm. Samples
247 underwent serial 10-fold dilutions and were spiral plated (Eddy Jet 2; Neutec Group Inc.,
248 Farmingdale, NY) onto low-salt LB agar for enumeration of CFU using a ProtoCOL 3 automated
249 colony counter (Synbiosis).
251 Catheter segment elemental composition. Catheter segments were placed in a microcentrifuge

[1] = set-up: method as in PMID 9792207; conditions: higher doses, four h post intraperitoneal administration; cited from earlier work
isolated rabbit bladders = conditions: cited from earlier work
P. mirabilis urease = conditions: 104V0, 106V15, HU1069 compared with HI4320
Description: as §15

[2] = system: isolated guinea pig bladders; conditions: cited from earlier work
[3] = incubation in potassium phosphate, CFU
[4] = alone: 5 mM AHA, 25 mM histamine, 25 mM 4-imidazole acetate
[5] = alone: 5 mM AHA, 25 mM histamine, 25 mM 4-imidazole acetate, nucleation point ~ pH 8

SMILES | growth of M. morganii (M. morganii TA43; LB broth) | antimicrobial activity against M. morganii TA43 (M. morganii TA43; [3]) | urease activity in P. stuartii (P. stuartii urease) | urease activity in M. morganii (M. morganii urease) | growth of UTI MRSA (UTI MRSA; BHI broth) | antimicrobial activity against UTI MRSA (UTI MRSA; [3]) | reduction in CFUs of UTI MRSA (UTI MRSA; one h incubation in potassium phosphate buffer) | crystalline biofilm formation (P. mirabilis) | Magnesium and phosphorus precipitation on catheter segments (ICP-OES) (P. mirabilis; [4]) | catheter biofilm biomass (crystal violet) vs untreated P. mirabilis (P. mirabilis; [4]) | pH of AUM collected from “bladders” over 24 h (P. mirabilis; alone, lower concentrations) | pH of AUM collected from “bladders” over 24 h (P. mirabilis; [5]) | P. mirabilis CFUs in effluent over time (P. mirabilis) | urease-mediated pH increase (P. mirabilis) | effects in rats [1] | response of isolated rabbit bladders (isolated rabbit bladders) | urease-dampening activity against P. mirabilis clinical isolates (P. mirabilis urease) | response of isolated guinea pig bladders [2]
O.O=C(O)[C@H](O)Cc1cnc[nH]1 [D-imidazole lactate, D-imidazolelactic acid hydrate] | perturbed growth | robust antimicrobial activity | most potent urease inhibition | most potent urease inhibition | perturbed growth | less-pronounced antimicrobial activity | one log reduction | – | – | – | – | – | – | – | – | – | – | –
Cl.O=C(O)Cc1cnc[nH]1 [4-imidazole acetate, 2-(1H-Imidazol-5-yl)acetic acid hydrochloride] | – | – | – | – | – | – | – | no impact on crystalline biofilm formation | reduced, although the reduction was not statistically significant | significantly reduced biofilm biomass | failed to restrict pH | never surpassed the nucleation point | no meaningful differences between CFUs over time | perturbed urease-mediated pH increase in a dose-dependent manner | seizures | – | – | –
NCCc1c[nH]cn1 [Histamine, histamine dihydrochloride] | – | – | – | – | – | – | – | no impact on crystalline biofilm formation | reduced, although the reduction was not statistically significant | significantly reduced biofilm biomass | failed to restrict pH | never surpassed the nucleation point | no meaningful differences between CFUs over time | perturbed urease-mediated pH increase in a dose-dependent manner | – | induce a contractile response | slightly less potent | induce a contractile response
